Assay results reported in PubChem BioAssay (NCI).
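Step 1: Grow cells in 96-well plates. Step 2: Expose to compound for 48 hours at 5 concentrations. Step 3: Interpolate endpoints linearly; if unreached, use highest concentration. Here, GI50 denotes the concentration required for 50% inhibition of growth. TGI marks complete inhibition of growth.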

How the values were obtained:
Assay in all cases: NCI anticancer screen, dose series, 48 h
HT29 colon = test system: HT29 colon
LOX IMVI melanoma = test system: LOX IMVI melanoma
SN12C renal = test system: SN12C renal
COLO 205 colon = test system: COLO 205 colon
SK-MEL-5 melanoma = test system: SK-MEL-5 melanoma
NCI-H522 lung = test system: NCI-H522 lung
SR leukemia = test system: SR leukemia

| Structure (SMILES) | TGI (HT29 colon) [µM] | TGI (LOX IMVI melanoma) [µM] | TGI (SN12C renal) [µM] | TGI (COLO 205 colon) [µM] | TGI (SK-MEL-5 melanoma) [µM] | TGI (NCI-H522 lung) [µM] | TGI (SR leukemia) [µM] | GI50 (HT29 colon) [µM] | GI50 (LOX IMVI melanoma) [µM] | GI50 (SN12C renal) [µM] | GI50 (COLO 205 colon) [µM] | GI50 (SK-MEL-5 melanoma) [µM] | GI50 (NCI-H522 lung) [µM] | GI50 (SR leukemia) [µM] |
| --- | --- | --- | --- | --- | --- | --- | --- | --- | --- | --- | --- | --- | --- | --- |
| CCOC(=O)C1(Cc2ccccc2)CCCCCN1 (stereo unspecified) | > 100 | > 100 | > 100 | > 100 |  |  |  |  |  |  |  |  |  |  |
| COc1ccc(C(N)=O)cc1N=NN(C)C | > 100 | > 100 | > 100 | > 100 | > 100 | > 100 | > 100 |  |  |  |  |  |  |  |
| C=C=C(CC)C(C(=O)OC)N(CC)CC (stereo unspecified) | > 100 | > 100 | > 100 | > 100 | > 100 | > 100 | > 100 |  |  |  |  |  |  |  |
| COc1ccc2c(c1OC)C1=C(C2=O)c2cc3c(cc2CCN1)OCO3 | 43.3 | 61.1 | > 100 | > 100 | 84.3 |  | 55 |  |  |  |  |  |  |  |
| COc1cc2noc(-c3ccccc3)c2cc1OC | > 100 | > 100 | > 100 | > 100 | > 100 | > 100 | > 100 |  |  |  |  |  |  |  |
| CN1NC2(CCCCC2)ON=C1c1ccccc1 | > 100 | > 100 | > 100 | > 100 | > 100 | > 100 | > 100 |  |  |  |  |  |  |  |
| COCC(=O)CP(=O)(OC)OC | > 100 | > 100 | > 100 | > 100 | > 100 | > 100 |  |  |  |  |  |  |  |  |
| O=C(O)/C(=C/c1c(O)ccc2ccccc12)c1csc(-c2nc(/C(=C\c3c(O)ccc4ccccc34)C(=O)O)cs2)n1 | 52.2 | 43.4 |  | 31.4 | 37.1 |  |  |  |  |  |  |  |  |  |
| COc1c(C(=O)O)oc2c(OC)cccc12 | > 100 | > 100 | > 100 | > 100 | > 100 | > 100 | > 100 |  |  |  |  |  |  |  |
| CN1c2ccccc2N(C)C2C1N(C)c1ccccc1N2C (stereo unspecified) | > 100 |  | > 100 | 29.4 | 18.4 | 26 |  |  |  |  |  |  |  |  |
| O=c1cc2ccccc2nn1Cc1ccccc1Cl | > 100 | > 100 | > 100 | > 100 | > 100 |  |  |  |  |  |  |  |  |  |
| Cc1nc2c(n1C(C)(C)C)C(=O)c1ccccc1C2=O | > 100 | > 100 | > 100 | > 100 | > 100 | > 100 | > 100 |  |  |  |  |  |  |  |
| CC1(C)OC(=O)C=C([O-])O1.CC1(C)OC(=O)C=C([O-])O1.O=S(=O)([O-])c1ccc([O-])c2ncccc12.O=S(=O)([O-])c1ccc([O-])c2ncccc12.[Ti+4] | > 100 | > 100 | > 100 | > 100 | > 100 | > 100 |  | > 100 | 46.7 | > 100 | > 100 | 92 | 52.4 |  |
| CCC(=O)C(C)C1=Nc2nnc(CCCCCCCc3nnc4n3C(=O)C(C(C)C(=O)CC)=N4)n2C1=O (stereo unspecified) | > 100 | > 100 | > 100 | > 100 | > 100 | > 100 | > 100 |  |  |  |  |  |  |  |
| CN(CN1C(=O)C2Cc3ccccc3CN2C1=O)c1ccccn1 (stereo unspecified) |  | > 100 | > 100 | > 100 | > 100 | > 100 | > 100 |  |  |  |  |  |  |  |
| CCNC(=O)C#CC(=O)NCC | > 100 | > 100 | > 100 | > 100 | > 100 | > 100 | > 61.4 | > 10 | > 10 | > 10 |  | > 10 |  | > 10 |
| N=c1nnc(=O)c2c(s1)-n1ncc(C(=O)O)c1NN2 | > 100 |  | > 100 | > 100 | > 100 | > 100 | > 100 |  |  |  |  |  |  |  |
| CC(=O)OC1CC2C(C)(C)C(=O)C=C[C@]2(C)C2CCC3(C)C(c4ccoc4)C(=O)[C@H]4O[C@]43[C@]12C (stereo partly specified) |  | 42.6 | 66.1 | > 100 | 32.9 | 36.9 |  |  |  |  |  |  |  |  |
| Cn1c(=O)nc2n(-c3cccc(F)c3)c3ccccc3nc-2c1=O | 32.5 | 61.8 | 73.9 | 19 | 27.3 | 38.1 |  |  |  |  |  |  |  |  |
| C1CCN(c2nsc(N3CCCCC3)n2)CC1 | > 100 | > 100 | > 100 |  | > 100 | > 100 | > 100 |  |  |  |  |  |  |  |
| Cc1ccc(S(=O)(=O)NC(=O)NC23CC4CC(CC(F)(C4)C2)C3)cc1 | > 100 | > 100 |  | > 100 | > 100 | > 100 |  |  |  |  |  |  |  |  |
| Cc1c(C(=O)NCCO)[n+](=O)c2cc(Cl)ccc2n1[O-] | > 100 | > 100 | > 100 | > 100 | > 100 |  | > 100 |  |  |  |  |  |  |  |
| COc1cccc(NC(=O)CC(=O)N2N=C(N(CCC#N)c3ccccc3C)CC2c2ccccc2)c1 (stereo unspecified) | > 100 |  | > 100 | > 100 | > 100 | > 100 | > 100 |  |  |  |  |  |  |  |
| NC(=O)N/N=C/C(/C=N/NC(N)=O)[N+](=O)[O-] | > 100 | > 100 | > 100 | > 100 |  | > 100 |  |  |  |  |  |  |  |  |
| Cc1c(C(=O)c2ccccc2C(=O)O)c2ccccc2n1C | > 100 |  |  |  | > 100 |  |  |  |  |  |  |  |  |  |
